Reference: patent publication US20240103015A1, “METHODS FOR ASSAYING SLC34A2 EXPRESSION IN MUSCLE TISSUE AND TREATING FACIOSCAPULOHUMERAL MUSCULAR DYSTROPHY” (University of Maryland, Baltimore, priority 2022, published 2024)

Key:
[1] = system: DUX4 target genes (MBD3L2, LEUTX, SLC34A2); test: qPCR of DUX4 target gene mRNAs in FSHD xenografts of treated mice; type: in vivo, mouse
Description: Xenografts are treated starting at 5 weeks after initial engraftment. Dosage is 10 mg/kg BID, injected IP.

[2] = system: SLC34A2 protein in C6 (FSHD) myotubes; test: Immunoblot of SLC34A2 protein in cultured FSHD myotubes treated with p38 kinase inhibitors; type: cell-based, human; conditions: for expression of the SLC34A2 protein: cultured C6 (FSHD) myotubes
Excerpt: (i): We have adapted and improved our procedures to assay for SLC34A2 mRNA and protein in myotubes of immortalized myoblasts derived from FSHD and healthy individuals. To establish the validity of our assays, we use losmapimod and other p38 kinase inhibitors.

[3] = system: SLC34A2; conditions: cited from earlier work
[4] = system: DUX4, SLC34A2 and other downstream gene products of DUX4; test: Relative mRNA expression of DUX4 and downstream genes in FSHD myotubes with and without losmapimod; type: cell-based, human
Excerpt: FIG. 22. Relative mRNA expression of DUX4, SLC34A2, and other downstream gene products of DUX4, in the presence and absence of losmapimod. *, p<0.05, **, p<0.01.

[5] = system: SLC34A2 protein at the surface of FSHD myotubes; test: Surface labeling of SLC34A2 protein on FSHD myotubes with and without losmapimod; type: cell-based, human
Excerpt: FIG. 20. Labeling of SLC34A2 protein at the surface of FSHD myotubes, with and without treatment with losmapimod. […] FIG. 21. Relative intensities of surface labeling of SLC34A2 in FSHD myotubes with and without losmapimod treatment, as in FIG. 20, normalized to the desmin signal in each ROI. *, p<0.05.

[6] = target: T1, SLC34A2 (Homo sapiens, UniProt O95436, D634G); test: Immunofluorescent labeling of frozen sections of xenografts with MX35; type: binding; conditions: FSHD (C6) xenografts in Tibialis anterior of NRG mice
T1 construct: from tissue; host or cells: Xenografts of human FSHD myoblasts (C6, 15A; controls A4, 15V) in the tibialis anterior of NRG mice
T1 sequence (O95436 1-689 isoform O95436-2 D633G): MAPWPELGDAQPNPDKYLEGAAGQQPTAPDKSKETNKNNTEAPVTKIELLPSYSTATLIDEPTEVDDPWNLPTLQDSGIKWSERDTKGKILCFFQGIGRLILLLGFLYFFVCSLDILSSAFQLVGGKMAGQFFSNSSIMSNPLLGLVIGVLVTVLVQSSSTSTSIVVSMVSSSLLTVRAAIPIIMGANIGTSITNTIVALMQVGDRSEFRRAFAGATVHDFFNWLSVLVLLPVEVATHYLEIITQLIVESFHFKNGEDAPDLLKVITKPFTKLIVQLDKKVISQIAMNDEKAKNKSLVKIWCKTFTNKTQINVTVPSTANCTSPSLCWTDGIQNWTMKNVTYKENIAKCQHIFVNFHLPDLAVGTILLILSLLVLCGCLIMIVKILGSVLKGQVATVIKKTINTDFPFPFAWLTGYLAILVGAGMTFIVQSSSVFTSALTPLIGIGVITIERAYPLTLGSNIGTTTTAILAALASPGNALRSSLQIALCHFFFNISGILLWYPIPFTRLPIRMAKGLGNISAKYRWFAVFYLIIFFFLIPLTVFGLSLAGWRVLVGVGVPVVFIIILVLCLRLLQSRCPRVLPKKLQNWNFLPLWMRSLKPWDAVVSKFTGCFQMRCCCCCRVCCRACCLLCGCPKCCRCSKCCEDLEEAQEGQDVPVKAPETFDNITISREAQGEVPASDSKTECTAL
Excerpt: (§1) Antibodies: MX35 is a mouse mAb from the Sloan-Kettering Research Institute. Biotinylation and conjugation of MX35 or its Fab fragments, to Alexa fluorophores from InVitrogen/ThermoFisher, will follow manufacturer's instructions. Rabbit mAbs to the N- and C-terminal regions of SLC34A2 (Cell Signaling) are used at 1:100 dilutions. Fluorescent secondary antibodies and streptavidin are available commercially.
(§2) Immunofluorescence: Mice will be euthanized and blood samples taken. Muscles will be collected and either snap frozen or processed for PCR or immunoblotting. Frozen muscles will be-sectioned on a cryostat and labeled for biotinylated MX35 with fluorescent streptavidin or antibodies to biotin. Double labeling with rabbit anti-SLC34A2 antibodies will be performed to confirm the identity of positive fibers. Additional labeling with human-specific antibodies (e.g., to β-spectrin, lamin followed by isoform-specific secondary antibodies will be used to confirm the identify of fibers of human origin in the xenografts, as: necessary.
(§3) Results: We used immortalized C6 myoblasts (14) to generate xenografts in the Tibialis anterior muscles of NRG mice. Cross sections of the graft show similar immunofluorescent labeling by MX35 and a rabbit Ab to the C-terminus of SLC34A2 (FIG. 6). […]

[7] = target: T2, SLC34A2 (Homo sapiens, UniProt O95436); test: as above; type: binding; conditions: control grafts generated with A4 cells
T2 construct: from tissue; host or cells: Xenografts of human FSHD myoblasts (C6, 15A; controls A4, 15V) in the tibialis anterior of NRG mice
T2 sequence (O95436 1-689 isoform O95436-2 D633G): T1 sequence (O95436 1-689 isoform O95436-2 D633G)
Excerpt: as §1, §2, §3

[8] = target: T1, SLC34A2; test: Immunoprecipitation of SLC34A2 from extracts of FSHD muscle cells in culture; type: binding
Excerpt: FIG. 13. Immunoblots of FSHD and control myotubes with antibodies to the C- and N-termini of SLC34A2 (A) and after immunoprecipitation with MX35 (B), followed by blotting.

[9] = system: SLC34A2; conditions: epithelia and cancers; cited from earlier work
[10] = target: T1, SLC34A2; test: Immunolabeling of living FSHD (C6) and control (A4) myotubes; type: binding; conditions: FSHD (C6) vs control (A4) myotubes
Excerpt: FIG. 14. Immunolabeling of living FSHD (C6) and control (A4) myotubes with MX35 and control IgG. DAPI was used as a counterstain (blue). Bound MX35 and control IgG were recognized with Alexa-568 labeled goat anti-mouse IgG (red).

[11] = target: T3, SLC34A2 in FSHD xenografts (Homo sapiens, UniProt O95436); test: IVIS imaging of living mice carrying xenografts after injection of fluorescent antibody; type: in vivo, mouse; conditions: living mice (IVIS) and frozen sections
T3 construct: from tissue; host or cells: Xenografts of human FSHD myoblasts (C6, 15A; controls A4, 15V) in the tibialis anterior of NRG mice
T3 sequence (O95436 1-689 isoform O95436-2 D633G): T1 sequence (O95436 1-689 isoform O95436-2 D633G)
Excerpt: (ii): Given the level of variability we observe in our xenografts, and the small numbers of FSHD myofibers in the grafts generated by some of the FSHD cell lines we have been studying, we thought it important to be able to monitor the diseased myofibers in living mice. Our approach is to inject mice with an infrared fluorescent version of a monoclonal antibody to SLC34A2, MX-35, that recognizes an extracellular epitope of the protein and that has been used clinically with patients with ovarian cancer. This approach should allow us to estimate the lifetime of the fibers once they become positive for SLC34A2, and, using different IR fluorophores, what the rate of appearance of newly positive fibers is in our grafts. It could also be used to test potential treatments for FSHD both in mice and in clinical trials with FSHD patients.
Injection and Imaging: Mice will be injected IV with fluorescent mAb or Fab fragments either through the tail vein or retroorbitally, with 150 μg of the biotinylated antibodyfluorophore conjugate in […]. Imaging in a Xenogen IVIS Spectrum Optical In Vivo imaging System (Perkin Elmer), will begin 2 hr later, repeated daily for 3 days, and at longer intervals thereafter. Repeated injections will also be done at regular intervals, to be determined, based on the levels of the antibody-conjugate remaining in circulation.

[12] = 10 mg/kg BID IP from 5 weeks after engraftment

| labeling of control graft sections [7] | immunoprecipitation of SLC34A2 [8] | Compound | expression of the mRNAs encoding DUX4 target genes, including SLC34A2 [1] | LEUTX reduction in expression [1, 12] | MBD3L2 reduction in expression [1, 12] | SLC34A2 reduction in expression [1, 12] [%] | expression of the SLC34A2 protein [2] | expression of SLC34A2 [3] | mRNAs encoding DUX4, SLC34A2 and other gene products downstream of DUX4 [4] | surface labeling signal of SLC34A2 protein [5] | SLC34A2 protein level ([2]; cultured FSHD myotubes, immunoblots) [fold] | recognition of SLC34A2 in xenograft sections [6] | binding to SLC34A2 [9] | labeling of the surface of living myotubes [10] | detection of antibody-tagged fibers in grafts [11] |
| --- | --- | --- | --- | --- | --- | --- | --- | --- | --- | --- | --- | --- | --- | --- | --- |
|  |  | CC(C)(C)Cn1c(N)nc2ccc(-c3[nH]c(C(C)(C)C)nc3-c3ccc(F)cc3)nc21 [LY222820, ralimetinib] | reduces expression | 60-70% | 60-70% | 41 | Decreased expression |  |  |  |  |  |  |  |  |
|  |  | Cc1c(F)cc(C(=O)NC2CC2)cc1-c1ccc(C(=O)NCC(C)(C)C)cn1 [losmapimod] |  |  |  |  | Decreased expression | reduces the expression of SLC34A2 | reduces the mRNAs encoding DUX4 and SLC34A2 | reduces this signal significantly | −2 |  |  |  |  |
| no labeling | can immunoprecipitated SLC34A2 | MX35 |  |  |  |  |  |  |  |  |  | recognizes SLC34A2 in mature FSHD skeletal muscle | bind SLC34A2 present in epithelia and cancers | specifically labels the surface of intact living FSHD myotubes, but not control, healthy myotubes | can be detected in FSHD but not control grafts |
